Reference: ChEMBL document CHEMBL3751755, “Developing steroidal aromatase inhibitors-an effective armament to win the battle against breast cancer” (Eur J Med Chem, 2015)

What follows are molecules tested against T1, Aromatase (Homo sapiens, UniProt P11511) (assay: Competitive inhibition of human aromatase extracted from placental microsomes by Dixon plot analysis in presence of [1beta-3H]androstenedione). Settings: read-out: Ki(app).
T1 sequence (P11511 whole entry): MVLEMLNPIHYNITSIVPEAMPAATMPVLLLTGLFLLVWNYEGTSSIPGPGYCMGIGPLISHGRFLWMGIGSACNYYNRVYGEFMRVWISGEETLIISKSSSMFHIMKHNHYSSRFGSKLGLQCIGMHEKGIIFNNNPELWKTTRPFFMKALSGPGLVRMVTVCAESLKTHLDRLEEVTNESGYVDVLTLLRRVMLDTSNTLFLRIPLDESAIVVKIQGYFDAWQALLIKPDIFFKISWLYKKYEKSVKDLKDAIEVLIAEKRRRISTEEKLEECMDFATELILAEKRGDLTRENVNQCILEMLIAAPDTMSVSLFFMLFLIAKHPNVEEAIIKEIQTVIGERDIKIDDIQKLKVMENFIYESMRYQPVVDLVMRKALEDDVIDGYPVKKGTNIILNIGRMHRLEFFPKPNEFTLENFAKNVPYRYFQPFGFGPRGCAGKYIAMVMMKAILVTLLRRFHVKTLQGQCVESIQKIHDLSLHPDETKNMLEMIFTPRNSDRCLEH
In the case of `CCCCC[C@@H]1C[C@@H]2[C@H](CC[C@]3(C)C(=O)CC[C@@H]23)[C@@]2(C)C=CC(=O)C=C12`, the Ki is reported as 5 nM. With `CC(=O)O[C@]12CCCCC1=CC(=O)[C@H]1[C@@H]3CCC(=O)[C@@]3(C)CC[C@@H]12` the Ki was 1100 nM.

The molecules below were run against T1, Aromatase (assay: Inhibition of aromatase (unknown origin)). Settings: not given.
Parameters: inhibition (INH): concentration or dose not given beside the values
`C[C@]12CC[C@H]3[C@@H](CCC4=CC(=O)CC[C@@]43[C@@H]3CN3)[C@@H]1CCC2=O` showed a Ki of 3.4 nM. `C[C@]12CC[C@H]3[C@@H](CCC4=CC(=O)CC[C@@]43[C@@H]3CN3)[C@@H]1CC[C@@H]2O` showed a Ki of 3.4 nM. In the case of `C[C@]12CC[C@H]3[C@@H](CCC4=CC(=O)CC[C@@]43[C@H]3CN3)[C@@H]1CC[C@@H]2O`, the Ki is reported as 3.4 nM. `C[C@]12CCC(=O)C(O)=C1C(=O)C[C@@H]1[C@@H]2CC[C@]2(C)C(=O)CC[C@@H]12` showed a Ki of 42 nM. With `CC(=O)O[C@H]1[C@@H]2[C@H](CC[C@]3(C)C(=O)CC[C@@H]23)[C@@]2(C)CCC(=O)C=C2[C@@H]1N=[N+]=[N-]` the IC50 was 400 nM. Molecule `CC1(C)C[C@@]2(C)C(=CC1=O)C(=O)C[C@@H]1[C@@H]2CC[C@]2(C)C(=O)CC[C@@H]12` has a Ki of 25 nM. Molecule `C[C@]12CC[C@H]3[C@@H](CCC4=CC(=O)CC[C@@]43[C@H]3CN3)[C@@H]1CCC2=O` has a Ki of 3.4 nM. `CC1(C)C[C@@]2(C)C(=C(O)C1=O)C(=O)C[C@@H]1[C@@H]2CC[C@]2(C)C(=O)CC[C@@H]12` was tested, and the Ki was 40 nM. Molecule `COC(=O)C1=C(C)NC(C)=C(C(=O)OC)C1C[C@H]1C[C@@H]2[C@H](CC[C@]3(C)C(=O)CC[C@@H]23)[C@@]2(C)C=CC(=O)C=C12` has an IC50 of 10000 nM.

Same assay, conditions: human
With `C[C@]12CC[C@H]3[C@@H](CC[C@H]4CC(=O)C[C@H]5[C@@H](O)[C@]435)[C@@H]1CCC2=O` the “inhibition (INH)” value was 40%. With `C[C@]12CC[C@H]3[C@@H](CC[C@H]4C[C@@]5(O)C[C@H]6[C@H](O5)[C@]436)[C@@H]1CCC2=O` the “inhibition (INH)” value was 40%. In the case of `CC(=O)[C@@]1(C)CC[C@H]2[C@@H](CCC3=C(O)C(=O)CC[C@@]32C)C1CC#N` (stereo not given in full), the “inhibition (INH)” value is reported as 46.5%. For `CC(=O)O[C@@H]1[C@@H]2CC(=O)C[C@@H]3CC[C@@H]4[C@H](CC[C@]5(C)C(=O)CC[C@@H]45)[C@@]312`, the “inhibition (INH)” value was 40%.

These molecules were tested against T1, Aromatase. Settings: not given.
Molecule `C[C@]12CC[C@@H]3c4cc(NC(=O)c5ccncc5)c(O)cc4CC[C@H]3[C@@H]1CCC2=O` has a Ki of 2100 nM. `C[C@]12CC[C@H]3[C@@H](CC(=O)[C@]45O[C@H]4C(=O)CC[C@]35C)[C@@H]1CCC2=O` gave a Ki of 5000 nM. In the case of `C[C@]12CC[C@@H]3c4cc(Br)c(O)cc4CC[C@H]3[C@@H]1CCC2=O`, the Ki is reported as 100 nM. For `CO[C@@H]1C[C@@H]2[C@H](CC[C@]3(C)C(=O)CC[C@@H]23)[C@@]2(C)CCCC=C12`, the Ki was 12 nM. Work on `CCCCCCC1=C[C@@H]2[C@H](CC[C@]3(C)C(=O)CC[C@@H]23)[C@@]2(C)C=CC(=O)C=C12` yielded a Ki of 2.5 nM. For `CCCCC1=C[C@@H]2[C@H](CC[C@]3(C)C(=O)CC[C@@H]23)[C@@]2(C)C=CC(=O)C=C12`, the Ki was 2.5 nM. `COC1=C[C@@]2(C)C(=CC1=O)CC[C@@H]1[C@@H]2CC[C@]2(C)C(=O)CC[C@@H]12` showed a Ki of 95 nM.

Molecular target: T1, Aromatase
Settings: not given
Remark: another data set of the same source
Work on `C[C@]12CCCC=C1[C@@H]1[C@H]([C@@H]3[C@@H]2CC[C@]2(C)C(=O)CC[C@@H]32)C1(F)F` yielded a Ki of 5 nM. For `C[C@]12CCCC=C1CC[C@@H]1[C@@H]2CC[C@]2(C)C(=O)[C@@H](Br)C[C@@H]12`, the Ki was 455 nM. `C[C@]12C=CC(=O)C=C1C[C@@H](CCCc1ccc([N+](=O)[O-])cc1)[C@@H]1[C@@H]2CC[C@]2(C)C(=O)CC[C@@H]12` gave a Ki of 7 nM. For `CCSC1=C2CC[C@@H]3[C@H](CC[C@]4(C)C(=O)CC[C@@H]34)[C@@]2(C)CCC1=O`, the Ki was 36 nM. `C[C@]12CCC(=O)C=C1C[C@@H](CCc1ccccc1)[C@@H]1[C@@H]2CC[C@]2(C)C(=O)CC[C@@H]12` was tested, and the Ki was 13.1 nM. With `C[C@]12CCC(=O)C=C1C=C(c1ccccc1)[C@@H]1[C@@H]2CC[C@]2(C)C(=O)CC[C@@H]12` the Ki was 1420 nM. Molecule `C[C@]12C=CC(=O)C=C1C[C@@H](CCCc1ccccc1)[C@@H]1[C@@H]2CC[C@]2(C)C(=O)CC[C@@H]12` has a Ki of 7 nM. `CC(=O)SC1=C2CC[C@@H]3[C@H](CC[C@]4(C)C(=O)CC[C@@H]34)[C@@]2(C)CCC1=O` was tested, and the Ki was 36 nM. Work on `C[C@]12CC[C@H]3[C@@H]([C@H](Cc4ccccc4)CC4=CC(=O)CC[C@@]43C)[C@@H]1CC[C@@H]2O` yielded a Ki of 36 nM. `C[C@]12CCC(=O)C=C1C[C@H](CCc1ccccc1)[C@@H]1[C@@H]2CC[C@]2(C)C(=O)CC[C@@H]12` was tested, and the Ki was 36 nM. `C[C@]12CC[C@H]3[C@@H](CCC4=CCCC[C@@]43C(F)F)[C@@H]1CCC2=O` gave a Ki of 170 nM. Molecule `CCCSC1=C2CC[C@@H]3[C@H](CC[C@]4(C)C(=O)CC[C@@H]34)[C@@]2(C)CCC1=O` has a Ki of 36 nM. With `C[C@]12CCC(=O)C=C1C=C(Cc1ccccc1)[C@@H]1[C@@H]2CC[C@]2(C)C(=O)CC[C@@H]12` the Ki was 60.9 nM. `C[C@]12CCC(=O)C=C1C[C@H](Cc1ccccc1)[C@@H]1[C@@H]2CC[C@]2(C)C(=O)CC[C@@H]12` was tested, and the Ki was 36 nM. `C[C@]12C=CC(=O)C=C1C[C@@H](CCc1ccc([N+](=O)[O-])cc1)[C@@H]1[C@@H]2CC[C@]2(C)C(=O)CC[C@@H]12` was tested, and the Ki was 7 nM. Work on `C[C@]12CCC(=O)C=C1[C@@H]1[C@H]([C@@H]3[C@@H]2CC[C@]2(C)C(=O)CC[C@@H]32)C1(F)F` yielded a Ki of 5 nM. For `C#C[C@H](OC(C)=O)[C@]12CCC(=O)C=C1C(=O)C[C@@H]1[C@@H]2CC[C@]2(C)C(=O)CC[C@@H]12`, the Ki was 67000 nM. `C[C@]12CCC(=O)C=C1C[C@@H](Cc1ccccc1)[C@@H]1[C@@H]2CC[C@]2(C)C(=O)CC[C@@H]12` gave a Ki of 18.9 nM. `C[C@]12CCC(=O)C(OCc3ccccc3)=C1CC[C@@H]1[C@@H]2CC[C@]2(C)C(=O)CC[C@@H]12` gave a Ki of 38 nM. Molecule `CSC1=C2CC[C@@H]3[C@H](CC[C@]4(C)C(=O)CC[C@@H]34)[C@@]2(C)CCC1=O` has a Ki of 36 nM. In the case of `C[C@]12C=CC(=O)C=C1C[C@@H](CCc1ccccc1)[C@@H]1[C@@H]2CC[C@]2(C)C(=O)CC[C@@H]12`, the Ki is reported as 7 nM. With `C[C@]12CCC(=O)C=C1C=C(CCc1ccccc1)[C@@H]1[C@@H]2CC[C@]2(C)C(=O)CC[C@@H]12` the Ki was 60.9 nM. Work on `C#C[C@@H](OC(C)=O)[C@@]12CCC(=O)C=C1C(=O)C[C@@H]1[C@@H]2CC[C@]2(C)C(=O)CC[C@@H]12` yielded a Ki of 75000 nM. `C[C@]12CC[C@H]3[C@@H](CCC4=CCCC[C@@]43CO)[C@@H]1CC[C@@H]2O` gave a Ki of 170 nM. `C[C@]12CC[C@H]3[C@@H]([C@H]4[C@@H](C5=CCCC[C@@]53C)C4(F)F)[C@@H]1CC[C@@H]2O` gave a Ki of 5 nM. For `C[C@]12CCCC=C1CC[C@@H]1[C@@H]2CC[C@]2(C)C(=O)[C@H](Br)C[C@@H]12`, the Ki was 228 nM. With `C[C@]12C=CC(=O)C=C1C[C@@H](Cc1ccccc1)[C@@H]1[C@@H]2CC[C@]2(C)C(=O)CC[C@@H]12` the Ki was 7 nM. `C[C@]12C=CC(=O)C=C1C[C@@H](CCc1ccc(N)cc1)[C@@H]1[C@@H]2CC[C@]2(C)C(=O)CC[C@@H]12` showed a Ki of 7 nM.
